According to US7572436B1, “Thionin as an antineoplastic and immunostimulant” (priority 2000, dated 2009):
Values joined by “and” are separate entries in the source; they are usually repeats but may differ in a detail not shown here. Equal values may be shown once. Read-outs that look alike come from different tables or passages of the source. Where no end group is shown, it is not given here.

How the values were obtained:
IL-1 = test: ELISA of IL-1 production by splenocytes; format: cell-based, Balb C murine; details: 48 hours, PT 0.05 μg/ml
Protocol: (§1) Identical plates are set up for an immunoassay and a mitogen assay. Mouse splenocytes and immuno-stimulating drugs are plated in duplicate wells (immunoassay) and triplicate wells (mitogen assay) in 96-well microplates as described above. The incubation at 37° C. in a humidified 5% CO2 incubator may vary from three to five days. At the end of the activation/proliferation period, the two identical plates are harvested as an immunoassay for cytokines or harvested as a mitogen assay (to which ^3H-thymidine has been added approximately 16-18 hours earlier).
(§2) Immunoassay kits used to detect IL-1β, IL-2, and IL-12 were the murine Quantikine M™ kits produced by R&D Systems (Minneapolis, Minn.). The general procedure is the same for all interleukin cytokines, and is described in the instructions provided by the manufacturer. All reagents are used at room temperature, and are prepared according to kit instructions.
(§3) The immunoassay plate is centrifuged at 200×g to pellet all cells. A 50 μl aliquot of Assay Diluent is first added to the center of each special enzyme-coated well supplied with the kit. Next, 50 μl of standard, control or test sample of supernatant from the immunoassay incubation plate is added to each well. This is incubated at room temperatures for two hours.
Liquid is aspirated from the wells, and the wells are washed five times with surfactant diluted 1:25 with distilled water. A 100 μL aliquot of Conjugate is added to each well and incubated two hours at room temperature. The wells are again aspirated and each well washed five times.
One hundred microliters of Substrate Solution are added to each well and incubated 30 minutes at room temperature. Stop Solution (100 μl) is then added to each well. The color change is light blue to yellow (activity). The plate is read for absorbence at 450 nm and at 540 nm for background readings.
(§4) To calculate the results, the duplicate readings for each pair of standard, control, and test samples are averaged and the average background optical density readings are subtracted. A standard curve is constructed for the cytokine by plotting the mean absorbence for each standard on the y-axis against the concentration on the x-axis and drawing a best-fit curve. Picograms of cytokine are determined from the standard curve. Mitogenic activity determined from the cpm of ^3H-thymidine is compared to the concentrations of cytokine in the experimental samples in the corresponding immunoassay.
One measure of macrophage activation is the production of the cytokine interleukin-1 (IL-1) and also interleukin-12 (IL-12). Incubation of 3×10^5 Balb C murine spleen cells with 0.05 μg/ml PT was performed for 48 hours. The supernatant fluid was assayed with commercial ELISA kits for IL-1 and IL-12. […] Some experiments gave less […] and some more. This is likely a reflection of the state of the immune system in the experimental mice. The addition of KLH, an effective antigen, increased both IL-1 and IL-12 production, and the addition of PT along with the KLH further increased the production of these cytokines.

IL-12 = test: ELISA of IL-12 production by splenocytes; format: cell-based, Balb C murine; details: 48 hours, PT 0.05 μg/ml
Protocol: as §1, §2, §3
Liquid is aspirated from the wells, and the wells are washed five times with surfactant diluted 1:25 with distilled water. A 100 μL aliquot of Conjugate is added to each well and incubated two hours at room temperature. […]
(§5) One hundred microliters of Substrate Solution are added to each well and incubated 30 minutes at room temperature. […] The plate is read for absorbence at 450 nm and at 540 nm for background readings.
as §4, with “A standard curve is constructed for the cytokine by plotting the mean absorbence for each standard on the y-axis against the concentration on the x-axis and drawing a best-fit curve.” left out, “immunoassay. […]” for “immunoassay.”

IL-2 = test: ELISA of IL-2 production by splenocytes; format: cell-based; details: Balb C murine spleen cells, 0.05 μg/ml PT, 48 hours
Protocol: as §1, with “The incubation at 37° C. in a humidified 5% CO2 incubator may vary from three to five days.” left out
Immunoassay kits used to detect IL-1β, IL-2, and IL-12 were the murine Quantikine M™ kits produced by R&D Systems (Minneapolis, Minn.). The general procedure is the same for all interleukin cytokines, and is described in the instructions provided by the manufacturer. […]
as §5
as §4, with “A standard curve is constructed for the cytokine by plotting the mean absorbence for each standard on the y-axis against the concentration on the x-axis and drawing a best-fit curve.” left out, “immunoassay. […]” for “immunoassay.”

[1] = system: murine Balb/C splenocytes; test: Binding of ^125I-labeled PT to mouse spleen cells; details: for Kd: ^125I-PT
From the text: Splenocytes are isolated from the spleens of selected mice (as described herein), treated to remove red cells, resuspended in PBS after washing, and counted using Trypan Blue exclusion. The average yield of spleen cells (splenocytes) from one spleen is 1−1.5×10^8 cells. A desired concentration of cells per sample tube in the binding assay is more than 5×10^6 cells/ml.
The protocol for the binding assay has been previously described (Vernon and Rogers, Toxicon 30:711-721, 1992). Reactions were carried out in a total volume of 400 μl in each microcentrifuge tube (160 μl PBS with ^125I-labeled PT at varying concentrations with 240 μl of spleen cell suspensions).
A total of 10^7 spleen cells were placed in each of the reaction microfuge tubes, and allowed to equilibrate at room temperature for five minutes. To each tube was added radiolabeled thionin (e.g., ^125I-PT) in amounts from 0.1 to 20 μg/ml. The radiolabeled PT used in the experiments contained approximately 10^6 counts/minute (0.3 μCi) per μg PT. The suspension was incubated at room temperature for 10 minutes, then placed on ice for an additional 10 minutes. The tubes were then centrifuged to pellet the cells.
The radioactivity in the supernatant fluid was determined from an aliquot removed from the tube. The plastic pipette tip used to transfer the aliquot was also put in the vial and counted in a gamma ray counter along with the transferred aliquot of the supernatant fluid, since this tip may absorb PT from the aliquot during transfer. The radioactivity amount determined represents the “free” PT, not bound to a cell.
After removal of the entire supernatant, the sedimented cells were washed twice in PBS, and the entire final washed suspension of cells was transferred to a vial for radioactivity counting. As with measurement of radioactivity in the supernatant, the pipette tip used to transfer the cell sample was added to the vial to include any PT that might be bound to the plastic tip. This measures the total “bound” PT.
Non-specific binding was determined in the presence of a 100-fold excess of non-radioactive iodinated PT. The binding data reported were obtained by subtracting the non-specific from the total binding. Triplicate assays were performed for each concentration of PT employed.

**Q.** What does the source list for “Pyrularia thionin (KSCCRNTWARNCYNVCRLPGTISREICAKKCDCKIISGTTCPSDYPK; ends and bridges not checked; also: labeled with 125I) [PT]”?
**A.** IL-1 (IL-1; Experiment 1, KLH 10 μg/ml, control 3.9): 6.0 ± 0.2 pg/mL; IL-1 (IL-1; Experiment 3, control 2): 2.4 ± 0 pg/mL; IL-1 (IL-1; Experiment 4, KLH (20 mg/ml), control 9): 14 ± 0.9 pg/mL; IL-12 (IL-12; Experiment 1, KLH 10 μg/ml, control 1.5): 5.6 ± 0.3 pg/mL; IL-12 (IL-12; Experiment 2, control 21): 24 ± 0.3 pg/mL; stimulation of production of IL-2 (IL-2): not conclusive; Kd ([1]; PT up to 1 μg/ml, read-out: dissociation constant, high affinity binding site): 65 nM and ~65 nM; Kd ([1]; PT up to 20 μg/ml, read-out: dissociation constant, low affinity binding site): 1600 nM and ~1600 nM; number of sites per cell, high affinity site ([1]; murine spleen cells): 1.4×10^5; number of sites per cell, low affinity site ([1]; murine spleen cells): 1×10^6
